From patent EP1795539B1, “Cell penetrating peptides for intracellular delivery of molecules” (Centre National de la Recherche Scientifique, priority 2005, dated 2007) come the findings set out here.

Read-outs that look alike come from different tables or passages of the source. Numbered stars: 1 amine (or outer) side, 2 acyl side, 3 side chain; on linkers, the order of the positions; unused ones are H or OH. Ends that are not written are not given here. Peptide text beside a SMILES is read from it. Cysteamide = C(CS[*:3])N[*:1]

The test system of data set [1] is HS-68 and Hela cells. Kind of data set: Toxicity of CADY variants, MTT cell viability assay (Table 1). In kind it is cell-based. The following applies: for toxicity: at concentration of 100 µM. The procedure:
The toxicity of CADY peptides has been investigated on different cell lines. Cells were incubated in the presence of increasing concentrations of CADY (from 0.1 µM to 1 mM) for 12 hrs and cell viability was estimated using MTT assay.
On the technique in general: Tetrazolium assays rely on reduction of a dye to a coloured formazan, in cell work by metabolically active cells.

Data set [2] concerns the target short 17-residues peptide (cargo used with CADY-2). Kind of data set: steady state Trp fluorescence quenching; fixed CADY (0.1 uM) titrated with cargo peptide; quadratic fit.
Where [3] appears, read: free peptide, MTT, read-out: free EC50.

One may read the EC50 as the concentration needed to bring the measured effect to its halfway point. For `CC(C)C[C@H](NC(=O)CN)C(=O)N[C@@H](Cc1c[nH]c2ccccc12)C(=O)N[C@@H](CCCNC(=N)N)C(=O)N[C@@H](C)C(=O)N[C@@H](CC(C)C)C(=O)N[C@@H](Cc1c[nH]c2ccccc12)C(=O)N[C@@H](CCCNC(=N)N)C(=O)NCC(=O)N[C@@H](CC(C)C)C(=O)N[C@@H](CCCNC(=N)N)C(=O)N[C@@H](CO)C(=O)N[C@@H](CC(C)C)C(=O)N[C@@H](Cc1c[nH]c2ccccc12)C(=O)N[C@@H](CCCCN)C(=O)N[C@@H](CCCCN)C(=O)N[C@@H](CCCCN)C(=O)N[C@@H](CCCNC(=N)N)C(=O)N[C@@H](CCCCN)C(=O)N[C@H](C(=O)NCCS)C(C)C` [CADY-1e] (HELM PEPTIDE1{G.L.W.R.A.L.W.R.G.L.R.S.L.W.K.K.K.R.K.V.[SCCN[*:1]]}$$$$V2.0), in data set [1] (setting [3]), the EC50 came out at 340 µM.
`CC(C)C[C@H](NC(=O)CN)C(=O)N[C@@H](Cc1c[nH]c2ccccc12)C(=O)N[C@@H](CCCNC(=N)N)C(=O)N[C@@H](C)C(=O)N[C@@H](CC(C)C)C(=O)N[C@@H](Cc1c[nH]c2ccccc12)C(=O)N[C@@H](CCCNC(=N)N)C(=O)N[C@@H](CC(C)C)C(=O)N[C@@H](CC(C)C)C(=O)N[C@@H](CCCNC(=N)N)C(=O)N[C@@H](CO)C(=O)N[C@@H](CC(C)C)C(=O)N[C@@H](Cc1c[nH]c2ccccc12)C(=O)N[C@@H](CCCNC(=N)N)C(=O)N[C@@H](CC(C)C)C(=O)N[C@@H](CC(C)C)C(=O)N[C@@H](Cc1c[nH]c2ccccc12)C(=O)N[C@@H](CO)C(=O)N[C@@H](CCC(N)=O)C(=O)N1CCC[C@H]1C(=O)N[C@@H](CCCCN)C(=O)N[C@@H](CCCCN)C(=O)N[C@@H](CCCCN)C(=O)N[C@@H](CCCNC(=N)N)C(=O)N[C@@H](CCCCN)C(=O)N[C@H](C(=O)NCCS)C(C)C` [CADY-2e] (HELM PEPTIDE1{G.L.W.R.A.L.W.R.L.L.R.S.L.W.R.L.L.W.S.Q.P.K.K.K.R.K.V.[SCCN[*:1]]}$$$$V2.0): the half-maximal effective concentration (EC50) in data set [1] (setting [3]) is 430 µM.
The same measure, in the same setting: then `CC(=O)NCC(=O)N[C@@H](CC(C)C)C(=O)N[C@@H](Cc1c[nH]c2ccccc12)C(=O)N[C@@H](CCCNC(=N)N)C(=O)N[C@@H](C)C(=O)N[C@@H](CC(C)C)C(=O)N[C@@H](Cc1c[nH]c2ccccc12)C(=O)N[C@@H](CCCNC(=N)N)C(=O)N[C@@H](C)C(=O)N[C@@H](CC(C)C)C(=O)N[C@@H](Cc1c[nH]c2ccccc12)C(=O)N[C@@H](CCCNC(=N)N)C(=O)N[C@@H](CO)C(=O)N[C@@H](CC(C)C)C(=O)N[C@@H](Cc1c[nH]c2ccccc12)C(=O)N[C@@H](CCCCN)C(=O)N[C@@H](CC(C)C)C(=O)N[C@@H](CCCCN)C(=O)N[C@@H](Cc1c[nH]c2ccccc12)C(=O)N[C@@H](CCCCN)C(=O)N[C@H](C(=O)NCCS)C(C)C` [CADY-2] (HELM PEPTIDE1{[ac].G.L.W.R.A.L.W.R.A.L.W.R.S.L.W.K.L.K.W.K.V.[SCCN[*:1]]}$$$$V2.0), with 230 µM; and `CC(C)C[C@H](NC(=O)CN)C(=O)N[C@@H](Cc1c[nH]c2ccccc12)C(=O)N[C@@H](CCCNC(=N)N)C(=O)N[C@@H](C)C(=O)N[C@@H](CC(C)C)C(=O)N[C@@H](Cc1c[nH]c2ccccc12)C(=O)N[C@@H](CCCNC(=N)N)C(=O)N[C@@H](C)C(=O)N[C@@H](CC(C)C)C(=O)N[C@@H](Cc1c[nH]c2ccccc12)C(=O)N[C@@H](CCCNC(=N)N)C(=O)N[C@@H](CO)C(=O)N[C@@H](CC(C)C)C(=O)N[C@@H](Cc1c[nH]c2ccccc12)C(=O)N[C@@H](CCCCN)C(=O)N[C@@H](CCCCN)C(=O)N[C@@H](CCCCN)C(=O)N[C@@H](CCCNC(=N)N)C(=O)N[C@@H](CCCCN)C(=O)N[C@H](C(=O)NCCS)C(C)C` [CADY-2c] (HELM PEPTIDE1{G.L.W.R.A.L.W.R.A.L.W.R.S.L.W.K.K.K.R.K.V.[SCCN[*:1]]}$$$$V2.0), with 340 µM.
`CC(C)C[C@H](NC(=O)CN)C(=O)N[C@@H](Cc1c[nH]c2ccccc12)C(=O)N[C@@H](CCCNC(=N)N)C(=O)N[C@@H](C)C(=O)N[C@@H](CC(C)C)C(=O)N[C@@H](Cc1c[nH]c2ccccc12)C(=O)N[C@@H](CCCNC(=N)N)C(=O)N[C@@H](C)C(=O)N[C@@H](CC(C)C)C(=O)N[C@@H](Cc1c[nH]c2ccccc12)C(=O)N[C@@H](CCCNC(=N)N)C(=O)N[C@@H](CO)C(=O)N[C@@H](CC(C)C)C(=O)N[C@@H](Cc1c[nH]c2ccccc12)C(=O)N[C@@H](CCCCN)C(=O)N[C@@H](CC(C)C)C(=O)N[C@@H](CCCCN)C(=O)N[C@@H](CCCNC(=N)N)C(=O)N[C@@H](CCCCN)C(=O)N[C@H](C(=O)NCCS)C(C)C` [CADY-1b] (HELM PEPTIDE1{G.L.W.R.A.L.W.R.A.L.W.R.S.L.W.K.L.K.R.K.V.[SCCN[*:1]]}$$$$V2.0): the EC50 is 380 µM in data set [1] (free peptide, MTT, listed as CADY-2d, read-out: free EC50) and 500 µM in data set [1] (setting [3]).
`CC(=O)NCC(=O)N[C@@H](CC(C)C)C(=O)N[C@@H](Cc1c[nH]c2ccccc12)C(=O)N[C@@H](CCCNC(=N)N)C(=O)N[C@@H](C)C(=O)N[C@@H](CC(C)C)C(=O)N[C@@H](Cc1c[nH]c2ccccc12)C(=O)N[C@@H](CCCNC(=N)N)C(=O)N[C@@H](CC(C)C)C(=O)N[C@@H](CC(C)C)C(=O)N[C@@H](CCCNC(=N)N)C(=O)N[C@@H](CO)C(=O)N[C@@H](CC(C)C)C(=O)N[C@@H](Cc1c[nH]c2ccccc12)C(=O)N[C@@H](CCCNC(=N)N)C(=O)N[C@@H](CC(C)C)C(=O)N[C@@H](CC(C)C)C(=O)N[C@@H](Cc1c[nH]c2ccccc12)C(=O)N[C@@H](CCCCN)C(=O)N[C@@H](C)C(=O)NCCSS[C@H]1CC[C@@]2(C)C(=CC[C@H]3[C@@H]4CC[C@H]([C@H](C)CCCC(C)C)[C@@]4(C)CC[C@@H]32)C1` [CADY-S2] (HELM PEPTIDE1{[ac].G.L.W.R.A.L.W.R.L.L.R.S.L.W.R.L.L.W.K.A.[CC(C)CCC[C@@H](C)[C@H]1CC[C@H]2[C@@H]3CC=C4C[C@@H](SSCCN[*:1])CC[C@]4(C)[C@H]3CC[C@]12C]}$$$$V2.0; N-terminus assumed) had an EC50 in data set [1] (12 h) of 250 µM.
“WEAALAEALAEALAEHLAEALAEALEALAA [GALA, reference compound]” gave a toxicity in data set [1] greater than 70%.
The same measure, in the same setting: with “WEAKLAKALAKALAKHLAKALAKALKACEA [KALA, reference compound]” the figure was greater than 70%.
Take `CC(C)C[C@H](NC(=O)CN)C(=O)N[C@@H](Cc1c[nH]c2ccccc12)C(=O)N[C@@H](CCCNC(=N)N)C(=O)N[C@@H](C)C(=O)N[C@@H](CC(C)C)C(=O)N[C@@H](Cc1c[nH]c2ccccc12)C(=O)N[C@@H](CCCNC(=N)N)C(=O)N[C@@H](C)C(=O)N[C@@H](CC(C)C)C(=O)N[C@@H](Cc1c[nH]c2ccccc12)C(=O)N[C@@H](CCCNC(=N)N)C(=O)N[C@@H](CO)C(=O)N[C@@H](CC(C)C)C(=O)N[C@@H](Cc1c[nH]c2ccccc12)C(=O)N[C@@H](CCCCN)C(=O)N[C@@H](CO)C(=O)N[C@@H](CCCCN)C(=O)N[C@@H](CCCNC(=N)N)C(=O)N[C@@H](CCCCN)C(=O)N[C@H](C(=O)NCCS)C(C)C` [CADY-2b] (HELM PEPTIDE1{G.L.W.R.A.L.W.R.A.L.W.R.S.L.W.K.S.K.R.K.V.[SCCN[*:1]]}$$$$V2.0): the EC50 in data set [1] (setting [3]) turned out to be 280 µM.
For the molecule `CC(C)C[C@H](NC(=O)CN)C(=O)N[C@@H](Cc1c[nH]c2ccccc12)C(=O)N[C@@H](CCCNC(=N)N)C(=O)N[C@@H](C)C(=O)N[C@@H](CC(C)C)C(=O)N[C@@H](Cc1c[nH]c2ccccc12)C(=O)N[C@@H](CCCNC(=N)N)C(=O)NCC(=O)N[C@@H](CC(C)C)C(=O)N[C@@H](CCCNC(=N)N)C(=O)N[C@@H](CO)C(=O)N[C@@H](CC(C)C)C(=O)N[C@@H](Cc1c[nH]c2ccccc12)C(=O)N[C@@H](CCCCN)C(=O)N[C@@H](CC(C)C)C(=O)N[C@@H](CCCCN)C(=O)N[C@@H](CCCNC(=N)N)C(=O)N[C@@H](CCCCN)C(=O)N[C@H](C(=O)NCCS)C(C)C` [CADY-1d] (HELM PEPTIDE1{G.L.W.R.A.L.W.R.G.L.R.S.L.W.K.L.K.R.K.V.[SCCN[*:1]]}$$$$V2.0), the EC50 in data set [1] (setting [3]) worked out at 500 µM.
As to `CC(C)C[C@H](NC(=O)CN)C(=O)N[C@@H](Cc1c[nH]c2ccccc12)C(=O)N[C@@H](CCCNC(=N)N)C(=O)N[C@@H](C)C(=O)N[C@@H](CC(C)C)C(=O)N[C@@H](Cc1c[nH]c2ccccc12)C(=O)N[C@@H](CCCNC(=N)N)C(=O)N[C@@H](C)C(=O)N[C@@H](CC(C)C)C(=O)N[C@@H](CCCNC(=N)N)C(=O)N[C@@H](CO)C(=O)N[C@@H](CC(C)C)C(=O)N[C@@H](Cc1c[nH]c2ccccc12)C(=O)N[C@@H](CCCCN)C(=O)N[C@@H](CC(C)C)C(=O)N[C@@H](CCCCN)C(=O)N[C@@H](CCCNC(=N)N)C(=O)N[C@@H](CCCCN)C(=O)N[C@H](C(=O)NCCS)C(C)C` [CADY-1c] (HELM PEPTIDE1{G.L.W.R.A.L.W.R.A.L.R.S.L.W.K.L.K.R.K.V.[SCCN[*:1]]}$$$$V2.0), in data set [1] (setting [3]), the EC50 was found to be 450 µM.

B1: CADY-2 (Ac-…-Cya) (peptide)
peptide: Ac-GLWRALWRALWRSLWKLKWKV-Cysteamide
The term Kd denotes the free concentration of one partner at which half of the binding sites on the other are occupied at equilibrium, for simple one-to-one binding. Low values mean tighter binding, high ones weaker binding. Turning to B1, in data set [2], the Kd was found to be 0.019 µM and the ratio at saturation (cargo/CADY molar ratio) worked out at 0.05.
